Data published in patent US20260217983A1, “SULFONIUM SALT PHOTOINITIATORS AND METHODS OF LED CURING A COMPOSITION WITH SAID SULFONIUM SALT PHOTOINITIATORS” (ARKEMA FRANCE, priority 2022, published 2026).

Experiments:
[1] = Thermal stability by DSC in TMPTA resin; type: physicochemical; details: DSC at 10° C./min, loading 1 wt %
Description: (§1) Formulations comprising the photoinitiators and neat UViCure S105E resin and/or TMPTA resin were prepared as described at example 2.

[2] = Thermal stability by DSC in TMPTA/UViCure S105E (1:1) hybrid resin; type: physicochemical; details: DSC at 10° C./min, loading 1 wt %
Description: as §1

[3] = Transmittance at 0.01% w/v in propylene carbonate; type: physicochemical
Description: The samples were prepared at 0.01% w/v in propylene carbonate.

[4] = Real time FT-IR curing performance in UViCure S105 at 365 and 385 nm; details: for Polymerization rate Rp/[M0]*100 / Final conversion: UViCure S105, 20 μm thickness, under air; for Final conversion: epoxide band; for cure speed compared with photoinitiators known from prior art such as Omnicat BL 550: LED lamp conditions, Example 2
Description: (§2) The curing performance of individual products prepared above was assessed using real time FT-IR measurement. The photoinitiators were dissolved in cycloaliphatic epoxy resin UViCure S105 (available from Sartomer) at the indicated wt % loading, applied onto the FT-IR measurement plate and irradiated with the indicated LED light source. The polymerization rate and final reactive group conversion were determined by monitoring the change of the relevant infrared band near 900 cm^−1 corresponding to an epoxide ring during irradiation. The molar extinction coefficients for the photoinitiator products (ε, expressed in M^−1 cm^−1) were determined in acetonitrile at 10^-3 M or 10^-5 M concentration.

[5] = Thermal stability by DSC in UViCure S105E resin; type: physicochemical; details: DSC at 10° C./min, loading 1 wt % (Omnicat BL550 4 wt %; Speedcure 938/CPTX 1/0.5 wt %)
[6] = FTIR-ATR cure test of cationic formulations (epoxide, oxetane conversion, 1100 cm^-1 peak growth); details: 405 nm, cationic systems
Description: Matrixes: In a 1000 mL of metal can, formulation matrix was charged according to the percentage in Table 12. The 1000-1005 g mixture of each matrix sample was prepared and mixed by mechanical mixer for about 1 hour around 60° C. until the solution became clear. Formulations: In a white max 50 jar from FlackTek Inc., photoinitiator and propylene carbonate were loaded at first, mixed by hand with stainless steel spatula, placed in 60° C. oven for about 1 h, mixed again until it became clear. Then, formulation matrix was charged according to the percentage in one of Table 13 to 21. The […]-52.60 g mixture of each sample was prepared and mixed for 3 minutes at 3000 RPM in Speed Mixer from FleackTec Inc. Then, all jars were placed in 60° C. oven for about 2 h, taken out and immediately mixed for another 2 minutes until the solution became clear.
A Fourier Transform Infrared (FTIR) with an Attenuated Total Reflection (ATR) setup was used. All polymerization rate measurements were performed using Nicolet iS50 FT-IR Spectrometer from Thermo Scientific, equipped with a standard DLaTGS detector. A lamp holder for the ART platform of FTIR unit can be customized and printed from Arkema N3xtDimention® engineered resin N3D-TOUGH784 in order to ensure precisely fit of a 365 nm lamp Accucure ULM-2-365 or a 405 nm lamp Accucure ULM-2-405 from Digital Light Labs. On the bottom of this lamp holder, a dry air channel is built in to allow air uniformly blowing over sample surface, the gas flow rate can be controlled over a rotameter. The LED light was manually triggered by Ultraviolet illumination & Measurement System. LED light exposure can be programed by AccuCure software. For measurement, 25 μL of liquid sample was placed in the center of an ATR crystal. 3 mil of thin film was prepared by a customized coating applicator (3 mil WFM, G1046 from BYK). The LED lamp with holder was place on the top of ART platform. Then FTIR scan was initiated to collect liquid IR spectrum at first. Each IR spectrum of a specific exposure time at 10 mW/cm^2 of LED light were collected. Measurements of acrylate conversion were taken at the peak height under the reference peak around 1727 cm^−1; the acrylate peak of SR833S at approximately 1407 cm^−1, the epoxide peak of UviCure S105 at approximately 790 cm^−1, and the oxetane peak of UViCure S130 at approximately 970 cm^−1 were also measured. Since the ring opening of both epoxide and oxetane generated C—O—C bond, the growth of C—O—C IR peak height at ~1100 cm^−1 was monitored as well. The resulting of peak 1100 cm^−1 growth rate could be calculated to assess total cationic cure speed. Peak heights were determined using the same baseline where a baseline is chosen to be the two lowest points between 600 cm^−1 and 1800 cm^−1. The peak height under the peak and above the baseline was then determined. The integration limits for liquid and the cured sample are not identical but are similar, especially for the reference peak.
The ratios of the acrylate peak height, epoxide peak height, ring opening peak height from both epoxide and oxetane to the reference peak height were determined for both the liquid and the cured samples. Degree of cure or conversion or peak growth rate, expressed as percentage reacted acrylate or epoxide or ring opening of both epoxide and oxetane, was calculated from the equation below: […]
Where Rliq is the peak height ratio of the liquid sample and Rc is the peak height ratio of the LED cured sample. The resulting acrylate and epoxide conversions or C—O—C growth rates were collected and listed in Tables 13 to 21, plotted in FIG. 1 to 8 and FIG. 10.

[7] = Molar extinction coefficient in acetonitrile; type: physicochemical
Description: as §2

[8] = Real time FT-IR curing performance at 405 nm in UViCure S105/TMPTA (1:1); details: LED @405 nm (110 mW/cm^2), 20 μm thickness, laminated
Description: The curing performance of individual products prepared above was assessed using real time FT-IR measurement. The photoinitiators were dissolved either in neat trimethylolpropane triacrylate (TMPTA; available as SR351 from Sartomer) or in a 1:1 (w/w) mixture of TMPTA and UViCure S105 as indicated, applied onto the FT-IR measurement plate, laminated to prevent oxygen inhibition, and irradiated with the indicated LED light source. For the epoxy component, the polymerization rate and final reactive group conversion were determined by monitoring the change of the relevant infrared band near 900 cm^−1 corresponding to an epoxide ring. For the acrylate component, the C═C stretch band near 1625 cm^−1 was used.

[9] = Colour index 'b' of formulations before and after polymerization; type: physicochemical; details: UViCure S105E, thin samples (20 μm), under air, 300 s irradiation
Description: The low yellowing characteristics can be measured by the Colour index ‘b’ value on cured films.
Formulations comprising the photoinitiators and neat UViCure S105E resin were prepared as described at example 2.

[10] = LED @365 nm (120 W/cm^2), PI loading 1 wt % (Omnicat BL 550 4 wt %; Speedcure 938/CPTX 1/0.5 wt %)

| Compound | onset temperature of thermal polymerisation [1] [°C] | onset temperature of thermal polymerisation [2] [°C] | % Transmittance at 355 nm [3] [%] | % Transmittance at 420 nm [3] [%] | Polymerization rate Rp/[M0]*100 [4, 10] [s⁻¹] | Final conversion ([4]; LED @365 nm (120 W/cm^2)) [%] | Polymerization rate Rp/[M0]*100 ([4]; LED @385 nm (160 W/cm^2)) [s⁻¹] | Final conversion ([4]; LED @385 nm (160 W/cm^2)) [%] | cure speed compared with photoinitiators known from prior art such as Omnicat BL 550 [4] | epoxide, oxetane and total cationic cure compared with Omnicat550 and SC992 [6] | ε at 365 nm [7] [M⁻¹ cm⁻¹] | ε at 385 nm [7] [M⁻¹ cm⁻¹] | Acrylate Final conversion [8] [%] | Acrylate Polymerization rate Rp/[M0]*100 [8] [s⁻¹] | Epoxy Final conversion [8] [%] | Epoxy Polymerization rate Rp/[M0]*100 [8] [s⁻¹] | Colour index ‘b’ value After Polymerization ([9]; LED @365 nm (120 mW/cm^2)) | Colour index ‘b’ value Before Polymerization ([9]; LED @365 nm (120 mW/cm^2)) | Colour index ‘b’ value After Polymerization ([9]; LED @385 nm (160 mW/cm^2)) | Colour index ‘b’ value Before Polymerization ([9]; LED @385 nm (160 mW/cm^2)) | other results |
| --- | --- | --- | --- | --- | --- | --- | --- | --- | --- | --- | --- | --- | --- | --- | --- | --- | --- | --- | --- | --- | --- |
| Cc1ccc([S+](c2ccc(C(=O)c3ccccc3)cc2)c2ccc3sc4ccc(C(C)C)cc4c(=O)c3c2)cc1 (stereo not shown) [Photoinitiator 2, (4-benzoylphenyl)(4-methylphenyl)[9-oxo-7-(propan-2-yl)-9H-thioxanthen-2-yl]sulfonium Hexafluorophosphate] | 170 | 117 | 19.7 | 94.3 | 4.11 | 41 | 5.96 | 41 | higher cure speed | better epoxide cure, oxetane cure as well as total cationic cure than both Omnicat550 and SC992 | 14201 | 14921 | 81 | 11.56 | 45 | 6.12 | 6.31 | 6.48 | 6.26 | 6.49 | onset temperature of thermal polymerisation [5]: ~240° ° C. |
| CC(C)c1ccc2sc3ccc(-[s+]4c5ccccc5c(=O)c5cc(C(C)C)ccc54)cc3c(=O)c2c1 (stereo not shown) [Photoinitiator 1, 9-oxo-10-[9-oxo-7-(propan-2-yl)-9H-thioxanthen-2-yl]-2-(propan-2-yl)-9H-thioxanthen-10-ium hexafluorophosphate] | 150 | 133 | 8.0 | 90.3 | 8.93 | 35 | 8.89 | 36 |  | better epoxide cure, oxetane cure as well as total cationic cure than both Omnicat550 and SC992 | 23380 | 23514 | 83 | 10.57 | 47 | 8.12 | 8.81 | 6.38 | 8.71 | 6.13 | onset temperature of thermal polymerisation [5]: ~220° ° C.; cationic cure compared with 2 (comp.) or 4 (comp.) [6]: performed slightly better than 2 (comp.) or 4 (comp.) |
| CCc1cc(CC)c2sc3ccc([S+](c4ccc(C)cc4)c4ccc(C(=O)c5ccccc5)cc4)cc3c(=O)c2c1 (stereo not shown) [Photoinitiator 4, (4-benzoylphenyl)(5,7-diethyl-9-oxo-9H-thioxanthen-2-yl)(4-methylphenyl)sulfonium Hexafluorophosphate] |  |  | 6.8 | 83.3 | 5.74 | 25 | 4.80 | 25 | higher cure speed | better epoxide cure, oxetane cure as well as total cationic cure than both Omnicat550 and SC992 | 13154 | 13649 | 83 | 12.20 | 45 | 6.29 | 6.05 | 6.33 | 6.09 | 6.28 |  |
| CCCOc1ccc(Cl)c2c(=O)c3cc(-[s+]4c5ccccc5c(=O)c5c(Cl)ccc(OCCC)c54)ccc3sc12 (stereo not shown) [Photoinitiator 5, 1-chloro-10-(8-chloro-9-oxo-5-propoxy-9H-thioxanthen-2-yl)-9-oxo-4-propoxy-9H-thioxanthen-10-ium Hexafluorophosphate] | 165 | 120 | 0.8 | 64.8 | 6.57 | 36 | 5.90 | 39 | higher cure speed | better epoxide cure, oxetane cure as well as total cationic cure than both Omnicat550 and SC992 | 37326 | 23429 | 70 | 6.03 | 44 | 3.87 | 4.92 | 5.02 | 4.91 | 5.35 | onset temperature of thermal polymerisation [5]: ~214° ° C.; cationic cure compared with 2 (comp.) or 4 (comp.) [6]: performed slightly better than 2 (comp.) or 4 (comp.) |
